Laboratory results reported in patent publication US10981932B2, “Macrocyclic indole derivatives” (Bayer Aktiengesellschaft, priority 2016, dated 2021).
Read-outs that look alike come from different tables or passages of the source.

Tests used:
[1] = target: MCL-1 (Homo sapiens, UniProt Q07820); assay: Protein-protein interaction assay MCL-1/Noxa BH3 peptide (MCL-1 assay), TR-FRET; type: binding; details: MBP-MCL-1 / Noxa BH3-derived peptide, median
In short: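 IC50 came from a 4-parameter fit of the normalized 665/620 nm TR-FRET ratio (anti-MBP Eu-cryptate/streptavidin-XL665). Compounds (0.1 nM–20 μM, duplicates) were preincubated 10 min at 22 °C with 1 nM MBP-MCL-1 in pH 7 Tris/NaCl/KF buffer, then read after 1 h at 22 °C plus overnight at 4 °C.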

[2] = system: SUDHL5; assay: Anti-proliferative effect (CellTiter-Glo, 72 h), SUDHL5; type: cell-based; details: SUDHL5 cells, antiproliferation, 72 h incubation, median, read-out: Antiproli SUDHL5 [M] (median)
In short: (§1)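 72 h compound treatment, 37 °C humidified; CellTiter-Glo added, 10 min incubation, luminescence read; day 0 plate read in parallel for baseline.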

[3] = system: SUDHL10; assay: Induction of caspase-3/7 activity (Caspase-Glo 3/7), SUDHL10; type: cell-based; details: caspase-3/7 induction, SUDHL10 cells, 3 h treatment, median
In short: (§2)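 DLBCL lines SUDHL5 and SUDHL10 treated with compounds for 3 h at 37 °C; caspase-3/7 activity read by Caspase-Glo 3/7 luminescence. Medium-only background subtracted; EC50 fitted with bottom fixed at 1 and top fixed at the reference compound's maximal induction.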

[4] = system: OPM2; assay: Anti-proliferative effect (CellTiter-Glo, 72 h), OPM2; type: cell-based; details: OPM2 cells, median, read-out: IC50 antiproliferation assay OPM2 [M] (median)
In short: as §1

[5] = system: SUDHL5; assay: Induction of cytotoxicity (CellTiter-Glo, 5 h), SUDHL5
[6] = system: SUDHL10; assay: Anti-proliferative effect (CellTiter-Glo, 72 h), SUDHL10; type: cell-based; details: SUDHL10 cells, antiproliferation, 72 h incubation, median, read-out: Antiproli SUDHL10 [M] (median)
In short: as §1

[7] = system: SUDHL10; assay: Induction of cytotoxicity (CellTiter-Glo, 5 h), SUDHL10
[8] = system: SUDHL5; assay: Induction of caspase-3/7 activity (Caspase-Glo 3/7), SUDHL5; type: cell-based; details: caspase-3/7 induction, SUDHL5 cells, 3 h treatment, median
In short: as §2

[9] = Homo sapiens, SU-DHL-5, 5 h, read-out: Cytotox SUDHL5 [M] (median), SUDHL5 cells, cytotoxicity induction, CellTiter-Glo, 5 h incubation, median
[10] = Homo sapiens, SU-DHL10, 5 h, read-out: Cytotox SUDHL10 [M] (median), SUDHL10 cells, cytotoxicity induction, CellTiter-Glo, 5 h incubation, median
[11] = read-out: Cytotox SUDHL5 [M] (median), SUDHL5 cells, cytotoxicity induction, CellTiter-Glo, 5 h incubation, median
[12] = read-out: Cytotox SUDHL10 [M] (median), SUDHL10 cells, cytotoxicity induction, CellTiter-Glo, 5 h incubation, median

Chain of MCL-1 (Q07820 whole entry): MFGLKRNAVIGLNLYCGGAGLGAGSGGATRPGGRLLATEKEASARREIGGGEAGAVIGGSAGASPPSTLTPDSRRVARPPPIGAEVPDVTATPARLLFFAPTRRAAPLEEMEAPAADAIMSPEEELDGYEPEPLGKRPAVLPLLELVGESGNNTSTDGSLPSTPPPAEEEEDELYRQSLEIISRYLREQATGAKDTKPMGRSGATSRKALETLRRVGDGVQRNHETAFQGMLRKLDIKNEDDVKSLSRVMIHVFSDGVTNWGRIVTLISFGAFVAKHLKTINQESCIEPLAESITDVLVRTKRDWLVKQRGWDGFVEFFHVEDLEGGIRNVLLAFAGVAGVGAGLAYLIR

Row | Structure (SMILES) | IC50 [1] | IC50 ([2]; Homo sapiens, SU-DHL-5, 72 h) | EC50 ([3]; Homo sapiens, SU-DHL10, 3 h) | IC50 ([4]; Homo sapiens, OPM-2, 72 h) | IC50 [5, 9] | IC50 ([6]; Homo sapiens, SU-DHL10, 72 h) | IC50 [7, 10] | EC50 ([8]; Homo sapiens, SU-DHL-5, 3 h) | IC50 [2] | EC50 [3] | IC50 [4] | IC50 [5, 11] | IC50 [6] | IC50 [7, 12] | EC50 [8]
1 | CN1CCCn2c(C(=O)O)c(CCCOc3cccc4ccccc34)c3cccc(c32)-c2c(COc3ccccc3)nn(C)c2C1 (racemic) [Example 1-81, (rac)-7,9-dimethyl-1-[3-(naphthalen-1-yloxy)propyl]-1-(phenoxymethyl)-4,5,6,7,8,9-hexahydropyrazolo[3′,4′:7,8][1,5]diazecino[9,10,1-hi]indole-2-carboxylic Acid] | 0.0994 µM | > 3.3e-05 M | > 33 µM | > 3.3e-05 M | > 3.3e-05 M | 2.78e-05 M | > 3.3e-05 M | > 33 µM |  |  |  |  |  |  | 
2 | Cc1cc(OCCCc2c(C(=O)O)n3c4c(cccc24)-c2c(COc4ccccc4)nn(C)c2CN(C)CCC3)cc(C)c1Cl (racemic) [Example 1-84, (rac)-1-[3-(4-chloro-3,5-dimethylphenoxy)propyl]-7,9-dimethyl-11-(phenoxymethyl)-4,5,6,7,8,9-hexahydropyrazolo[3′,4′:7,8][1,5]diazecino[9,10,1-hi]indole-2-carboxylic Acid] | 0.11 µM | 1.18e-05 M | > 33 µM | > 3.3e-05 M | > 3.3e-05 M | 8.37e-06 M | > 3.3e-05 M | > 33 µM |  |  |  |  |  |  | 
3 | Cc1nn(C)c2c1-c1cccc3c(CCCOc4cccc5ccccc45)c(C(=O)O)n(c13)CCCN(c1ccccc1)C2 (racemic) [Example 1-97, (rac)-9,11-Dimethyl-1-[3-(1-naphthyloxy)propyl]-7-phenyl-4,5,6,7,8,9-hexahydropyrazolo[3′4′:78][1,5]diazecino[9,10,1-hi]indole-2-carboxylic Acid] | 0.175 µM | 1.18e-05 M | > 30 µM | 1.43e-05 M | > 3e-05 M | 7.07e-06 M | > 3e-05 M | > 30 µM |  |  |  |  |  |  | 
4 | Cn1nc(COc2ccccc2)c2c1COCC=CCn1c(C(=O)O)c(CCCOc3cccc4ccccc34)c3cccc-2c31 (single isomer, unassigned) [Example 1-77, (E/Z)-1-methyl-7-[3-(naphthalen-1-yloxy)propyl]-3-(phenoxymethyl)-1,10,13,15-tetrahydropyrazolo[4′,3′:9,10][1,6]oxazacycloundecino[8,7,6-hi]indole-8-carboxylic Acid] | 0.188 µM | 2.96e-05 M | > 33 µM | > 3.3e-05 M | > 3.3e-05 M | 1.52e-05 M | > 3.3e-05 M | > 33 µM |  |  |  |  |  |  | 
5 | Cn1nc(COc2ccccc2)c2c1COCC=CCn1c(C(=O)O)c(CCCOc3cccc4ccccc34)c3cccc-2c31 (single isomer, unassigned) [Example 1-78, (E/Z)-1-methyl-7-[3-(naphthalen-1-yloxy)propyl]-3-(phenoxymethyl)-1,10,13,15-tetrahydropyrazolo[4′,3′:9,10][1,6]oxazacycloundecino[8,7,6-hi]indole-8-carboxylic Acid] | 0.905 µM |  |  |  |  |  |  |  | 1.79e-05 M | > 33 µM | 3.06e-05 M | > 3.3e-05 M | 1.08e-05 M | > 3.3e-05 M | > 33 µM
6 | CN1CCCn2c(C(=O)O)c(CCCOc3cccc4ccccc34)c3cccc(c32)-c2c(COc3ccccc3)nn(C)c2C1 (single isomer, unassigned) [Example 1-82, 7,9-dimethyl-1-[3-(naphthalen-1-yloxy)propyl]-11-(phenoxymethyl)-4,5,6,7,8,9-hexahydropyrazolo[3′,4′:7,8][1,5]diazecino[9,10,1-hi]indole-2-carboxylic Acid] | 0.113 µM | 2.77e-05 M | > 33 µM | > 3.3e-05 M | > 3.3e-05 M | 1.42e-05 M | > 3.3e-05 M | > 33 µM |  |  |  |  |  |  | 
7 | CN1CCCn2c(C(=O)O)c(CCCOc3cccc4ccccc34)c3cccc(c32)-c2c(COc3ccccc3)nn(C)c2C1 (single isomer, unassigned) [Example 1-83, 7,9-dimethyl-1-[3-(naphthalen-1-yloxy)propyl]-11-(phenoxymethyl)-4,5,6,7,8,9-hexahydropyrazolo[3′,4′:7,8][1,5]diazecino[9,10,1-hi]indole-2-carboxylic Acid] | 0.24 µM |  |  |  |  |  |  |  | 2.06e-05 M | > 33 µM | > 3.3e-05 M | > 3.3e-05 M | 1.12e-05 M | > 3.3e-05 M | > 33 µM
8 | Cc1cc(OCCCc2c(C(=O)O)n3c4c(cccc24)-c2c(COc4ccccc4)nn(C)c2CN(C)CCC3)cc(C)c1Cl (single isomer, unassigned) [Example 1-85, 1-[3-(4-chloro-3,5-dimethylphenoxy)propyl]-7,9-dimethyl-11-(phenoxymethyl)-4,5,6,7,8,9-hexahydropyrazolo[3′,4′:7,8][1,5]diazecino[9,10,1-hi]indole-2-carboxylic Acid] | 0.262 µM | 2.5e-05 M | > 33 µM | > 3.3e-05 M | > 3.3e-05 M | 1.03e-05 M | > 3.3e-05 M | > 33 µM |  |  |  |  |  |  | 
9 | Cc1cc(OCCCc2c(C(=O)O)n3c4c(cccc24)-c2c(COc4ccccc4)nn(C)c2CN(C)CCC3)cc(C)c1Cl (single isomer, unassigned) [Example 1-86, 1-[3-(4-chloro-3,5-dimethylphenoxy)propyl]-7,9-dimethyl-1-(phenoxymethyl)-4,5,6,7,8,9-hexahydropyrazolo[3′,4′:7,8][1,5]diazecino[9,10,1-hi]indole-2-carboxylic Acid] | 0.278 µM |  |  |  |  |  |  |  | 1.96e-05 M | > 33 µM | 2.43e-05 M | > 3.3e-05 M | 9.45e-06 M | > 3.3e-05 M | > 33 µM
10 | CN1CCCn2c(C(=O)O)c(CCCOc3cccc4ccccc34)c3cccc(c32)-c2c(COc3ccc(-n4ccccc4=O)cc3)nn(C)c2C1 (single isomer, unassigned; enantiomer 1) [Example 1-115, 7,9-Dimethyl-1-[3-(1-naphthyloxy)propyl]-1-{[4-(2-oxopyridin-1(2H)-yl)phenoxy]methyl}-4,5,6,7,8,9-hexahydropyrazolo[3′,4′:7,8][1,5]diazecino[9,10,1-hi]indole-2-carboxylic Acid (Enantiomer 1)] | 0.0479 µM |  | 32.9 µM | > 3.3e-05 M |  | 1.24e-05 M | > 3.3e-05 M | > 33 µM | 2.13e-05 M |  |  | > 3.3e-05 M |  |  | 
11 | CN1CCCn2c(C(=O)O)c(CCCOc3cccc4ccccc34)c3cccc(c32)-c2c(COc3ccc(N4CCN(S(=O)(=O)N(C)C)CC4)cc3)nn(C)c2C1 (single isomer, unassigned; enantiomer 2) [Example 1-16, 11-({4-[4-(dimethylsulfamoyl)piperazin-1-yl]phenoxy}methyl)-7,9-dimethyl-1-[3-(naphthalen-1-yloxy)propyl]-4,5,6,7,8,9-hexahydropyrazolo[3′,4′:7,8][1,5]diazecino[9,10,1-hi]indole-2-carboxylic Acid (Enantiomer 2)] | 0.0848 µM |  |  |  |  |  |  |  | 8.21e-06 M | > 33 µM | 1.15e-05 M | > 3.3e-05 M | 5.63e-06 M | > 3.3e-05 M | > 33 µM
12 | Cc1nn(C)c2c1-c1cccc3c(CCCOc4cccc5ccccc45)c(C(=O)O)n(c13)CCCCN2Cc1ccccc1 [Example 002, (rac)-8-benzyl-9,11-dimethyl-1-[3-(1-naphthyloxy)propyl]-4,5,6,7,8,9-hexahydropyrazolo[4′,3′:4,5][1,6]diazecino[3,2,1-hi]indole-2-carboxylic Acid] | 0.353 µM | 1.42e-05 M | 22.4 µM | > 3.3e-05 M | 2.12e-05 M | 6.26e-06 M | 3.18e-05 M | > 33 µM |  |  |  |  |  |  | 
